Residues, ends and D or L forms follow the SMILES beside them. No end group written: not given here.
How the values were obtained:
TLR4 [1] = assay: LPS-induced MAPK (ERK, JNK, p38) activation in mouse macrophages (Western analysis); assay type: cell-based; conditions: for LPS-induced ERK phosphorylation / LPS-induced JNK activation: 30 min LPS 10 ng/ml
Experimental: Cellular protein extracts were isolated by addition of 240 μL per well cold lysate buffer (20 mM Tris, 50 mM NaCl, 1.5 mM MgCl2, 2 mM EDTA, 10 mM NaF, 2 Mm DTT, 1 mM Na3VO4, 1% Triton). Cells were incubated with lysis solution for 30 min on agitator at 4° C. Lysate was then collected and centrifuged at 14,000 g for 10 minutes at 4° C. After quantification using BioRad protein assay, protein samples were added to Laemmli buffer and then boiled for 10 min. Samples were then resolved by SDS-10% PAGE in Tris/glycine/SDS buffer (25 mM Tris, 250 mM glycine, 0.1% SDS), and transferred onto Immobilon P transfer membranes (Millipore, Bedford, Mass.) (100 V, 1.5 h, 4° C.). Membranes were blocked for 1 h in TBS-T (20 mM Tris-HCl, 150 mM NaCl, 0.1% Tween 20) containing 5% nonfat milk, then probed for overnight at 4° C. with the respective antibodies (Abs) (dilution 1:1000 in TBS-T with 2% BSA). After washing in TBS-T, membranes were incubated with secondary HRP-conjugated, donkey anti-rabbit IgG (1:10,000 dilution in TBS-T with 5% nonfat milk) for 1 h at room temperature. Membranes washed five times in TBS-T before development with ECL reagents (GE Healthcare) according to manufacturer's directions.
HEK293T cells were transfected with indicated plasmids using Superfect Transfection Reagent (Qiagen). Twenty-four hours posttransfection, the cells were lysed using the buffer containing 20 mM HEPES (pH 7.4), 150 mM NaCl, 10 mM NaF, 2 mM Na3VO4, 1 mM EDTA, 1 mM EGTA, 0.5% Triton X-100, 0.1 M DTT, 1 mM PMSF, and protease inhibitor mixture (Roche, Indianapolis, Ind.). Rabbit Ab against phospho-ERK, phospho-JNK, MyD88 (D80F5), STAT1-Y701, total STAT1, and GAPDH were purchased from Cell Signaling Technology (Beverly, Mass.). Rabbit anti-phospho-p38 Ab was purchased from Promega (Madison, Wis.). Goat anti-TLR4 (M−16), rabbit anti-TLR4 (H-80), anti-HA-HRP (F-7), and rabbit anti-b-actin Ab were purchased from Santa Cruz Biotechnology. Mouse anti-Flag M2 and rabbit anti-HA Ab were from Sigma-Aldrich. GFP Ab (A1122) was from Invitrogen. Protein was quantified using Bio-Rad protein quantification kit. Equal amount of protein was loaded and analyzed by 10% SDS-PAGE and immunoblotting. The cell extracts containing equal amount of protein were incubated with 1 μg Ab for 2 h, followed by 4-h incubation with 25 μl protein G agarose beads (Roche); the beads were then washed four times with lysis buffer, boiled in […] sample loading buffer, and analyzed by immunoblotting.
We next examined whether TRAM peptides inhibit the TLR4-mediated p38, ERK, and JNK MAPK activation. Murine macrophages pretreated with peptides for 30 min were challenged with LPS. Cell lysates were collected 30 min post-stimulation and analyzed for MAPK phosphorylation by Western analysis. Consistent with peptide effects on steady-state mRNA, both TM4 and TM6 inhibited activation of all three MAPKs (FIG. 5C). The inhibition of MAPKs by TM4 or TM6 was long lasting; it persisted for at least 1 h after LPS stimulation (data not shown). To characterize further the effects of TRAM peptides on MAPKs, murine macrophages were treated with TRAM peptides, but not challenged by LPS.

C57BL/6J mice = assay: In vivo efficiency of decoy peptides (Table 1; LPS challenge in mice); set-up: species or system mouse
Experimental: FIG. 4. Effect of select TRAP decoy peptides on TNF-α and IL-6 in blood following an ip LPS challenge. C57BL/6J mice were injected with TR5, TR6, or TR7 peptide or mock-treated 1 hour before injection of purified E. coli LPS. Peptides and LPS were injected to mice intraperitonealy 10 nmol or 1 μg per gram of animal weight, correspondingly.
FIG. 10. […] (A-E) C57BL/6J mice were injected i.p. with purified Escherichia coli K235 LPS (1 μg/g) or PBS. Peptides (10 nmol/g of animal weight) were injected i.p. (A, B, D, E) or i.v. (C) 1 h before (A, B, and C) or 30 min after (D, E) i.p. injection of LPS. Data in panels A and D show plasma IL-6 and TNF-α levels measured 2 h after LPS challenge. Peptide TM8/9 was used as a non-inhibitory control peptide. Data represent the means±s.e.m. for 6-12 blood samples obtained in at least three independent experiments. *p<0.01. (F, G) C57BL/6J mice were challenged i.p. with a lethal LPS dose (17.5 μg/g). Peptides (10 nmol/g) were injected i.p. 1 h before LPS challenge. […] The statistical significance of changes in mortality and survival time was determined by the Mantel Cox log-rank test using GraphPad Prism software (Version 5.04). *p<0.01.
Eight-week-old C57BL/6J mice were injected with 1 or 17.5 μg/g animal weight of E. coli K235 LPS i.p. Peptides reconstituted in PBS were administered i.p. or i.v. Control groups received equivalent volume of solvent (PBS). The blood samples were collected 1, 2, 4, and 8 h, or 2, 8, and 24 h after LPS challenge. The plasma samples were obtained and kept frozen until TNF-α and IL-6 were measured by ELISA. Survival of animals was monitored every 6-16 h after LPS challenge. All animal experiments were carried out with institutional approval.

TLR4 [2] = assay: LPS-induced cytokine secretion by mouse macrophages (ELISA/multiplex); assay type: cell-based; conditions: for LPS-induced Rantes production: 6 h supernatants; for Decrease in LPS-induced cytokine production (FIG. 2, 8 panels): LPS 10 ng/ml for 5, 6 or 24 h
Experimental: Cytokine secretion was measured in supernatant samples collected at 6 or 24 h time points and stored at −80° C. Samples were analyzed by a multiplex assay at the University of Maryland Baltimore Cytokine Core Facility using a Luminex 100 reader and Softmax Pro software, or by ELISA kits for mouse IL-6 or TNF-α from BioLegend (San Diego, Calif.) and LT-4000 microplate reader.
A total of 2×10^6 cells was plated in 12-well plates and treated with peptides for 30 min prior to LPS stimulation. TNF-α, IL-1β, IL-6, and IFN-β were measured using ELISA kits from BioLegend (San Diego, Calif.), as recommended by the manufacturer.

Molecule | LPS-induced p38, ERK, and JNK MAPK activation (TLR4 [1]; lysates 30 min after LPS) | In vivo efficiency (C57BL/6J mice) | LPS-induced cytokine secretion (TLR4 [2]; 5 or 20 μM peptide, LPS 100 ng/ml, supernatants 24 h) | LPS-induced ERK phosphorylation (TLR4 [1]; 20 μM peptide) | LPS-induced JNK activation (TLR4 [1]; 20 μM peptide) | LPS-induced Rantes production (TLR4 [2]) | Decrease in LPS-induced cytokine production (FIG. 2, 8 panels) (TLR4 [2]) | LPS-induced activation of p38 and ERK MAPKs (TLR4 [1]; 20 μM peptide, LPS 30 min)
RQIKIWFQNRRMKWKKCLQDAIDHSGFT [TF5] | inhibit | Yes, i.p. | inhibit | – | – | – | – | –
RQIKIWFQNRRMKWKKGGFYQVKEAVIHY [TR11] | – | – | – | potently inhibited | inhibited | inhibited | statistically significant | –
RQIKIWFQNRRMKWKKAAYPPELRFMYYVD [TR9] | – | – | – | potently inhibited | inhibited | inhibited | statistically significant | –
RQIKIWFQNRRMKWKKPGFLRDPWCKYQML [TR6] | – | yes, i.p. | – | potently inhibited | apparent absence of JNK inhibition | inhibited | statistically significant | potently inhibited
RQIKIWFQNRRMKWKKEGSQASLRCF [TR3] | – | – | – | potently inhibited | apparent absence of JNK inhibition | inhibited | statistically significant | –
CC[C@H](C)[C@H](NC(=O)[C@H](CCCCN)NC(=O)[C@@H](NC(=O)[C@H](CCC(N)=O)NC(=O)[C@@H](N)CCCNC(=N)N)[C@@H](C)CC)C(=O)N[C@@H](Cc1c[nH]c2ccccc12)C(=O)N[C@@H](Cc1ccccc1)C(=O)N[C@@H](CCC(N)=O)C(=O)N[C@@H](CC(N)=O)C(=O)N[C@@H](CCCNC(=N)N)C(=O)N[C@@H](CCCNC(=N)N)C(=O)N[C@@H](CCSC)C(=O)N[C@@H](CCCCN)C(=O)N[C@@H](Cc1c[nH]c2ccccc12)C(=O)N[C@@H](CCCCN)C(=O)N[C@@H](CCCCN)C(=O)N[C@@H](CCC(=O)O)C(=O)N[C@@H](CC(C)C)C(=O)N[C@@H](CS)C(=O)N[C@@H](CCC(N)=O)C(=O)N[C@@H](C)C(=O)N[C@@H](CC(C)C)C(=O)N[C@@H](CO)C(=O)N[C@@H](CCCNC(=N)N)C(=O)N[C@@H](CO)C(=O)N[C@@H](Cc1c[nH]cn1)C(=O)N[C@@H](CS)C(=O)N[C@@H](CCCNC(=N)N)C(=O)O [TR5] (H-RQIKIWFQNRRMKWKKELCQALSRSHCR-OH) | – | yes, i.p. | – | potently inhibited | – | inhibited | statistically significant | –
